This note sets out measurements from patent US10059733B2 (NUCORION PHARMACEUTICALS, INC., priority 2014, dated 2018).

Data set [1] can be described thus: TC50 assay in Huh7 cells, 48 h (CellTiter 96). To be noted: human. The protocol:
(§1) Huh7 cells were maintained at 37° C. in a humidified atmosphere at 5% CO2 in DMEM containing 10% FBS. […] The cells were then treated with each compound at concentrations ranging from 500 μM to 0 μM in triplicate in DMEM media containing 2% FBS and 0.5% DMSO and without phenol red. After 48 h of treatment at 37° C., the relative number of living cells in each well was determined by using the CellTiter 96 system (Promega) according to the manufacturer's instructions. The 3-(4,5-dimethylthiazol-2-yl)-5-(3-carboxymethoxyphenyl)-2-(4-sulfophenyl)-2H-tetrazolium (MTS) and phenazine methosulfate (PMS) reagents were added to each well of the 96-well plate and the plate was incubated at 37° C. for approximately 2 h. The absorbance at 490 nm and 650 nm in each well was then determined by using a Flexstation 3 microplate reader ([…]). The absorbance determined at 650 nm was then subtracted from the absorbance determined at 490 nm to correct for light scattering. The corrected absorbance values representing the relative number of live cells in each condition were then plotted as a function of compound concentration, and the data were then fit to the following sigmoidal Emax equation by using Kaleidagraph: y=(Emax*x^Slope)/(TC50^Slope+x^Slope) where y is the relative corrected absorbance value, Emax is the maximum relative inhibition, x is the compound concentration, TC50 is the concentration of the compound at which the total cell population is reduced by 50%, and Slope is the slope of the curve.
The data in Table 1 were determined for cells exposed to drug for 48 h. The IC50 is the concentration of each compound necessary to inhibit the replication of the HCV luciferase replicon to 50%. “TC50,” refers to toxic concentration necessary to reduce the cell population by 50%. All compounds were purified by HPLC.

Data set [2] has as its system HCV luciferase replicon. The data set is described as follows: IC50 assay: inhibition of the HCV luciferase replicon in Huh7 cells. The conditions noted are these: for IC50: Hepatitis C virus; for Therapeutic Index (TC50/IC50): TC50 in Huh7 / IC50 HCV replicon, 48 h. It counts as cell-based. The protocol:
After 48 h of treatment at 37° C., the media in each well was removed, the cells were gently washed once with phosphate buffered saline (PBS) and subsequently lysed by the addition of Glo Lysis Buffer (Promega). After a 15 min incubation at room temperature to allow for complete cell lysis, Bright-Glo luciferase reagent (Promega) was added to each well and the relative luciferase activity in each well was determined by using a Glowmax 96 microplate luminometer (Promega).
IC50 values determined using the above methods for inhibition of the HCV luciferase replicon in Huh7 cells are set forth in Table 1.
All compounds were purified by HPLC.
On the technique in general: In antiviral work, replicon cells carry a viral genome segment that copies itself.

Data set [3] relates to HCV luciferase replicon. The data set is described as follows: Isobologram analysis of synergism with antiviral compound in HCV luciferase replicon. In kind it is cell-based. The protocol: Isobologram analysis was conducted to assess the potential synergistic interaction of representative disclosed compounds with representative antiviral compounds. The isobolgram analysis was conducted as previously described by Chou and Talalay (see Chou T. C. and Talalay P. “Analysis of combined drug effects: a new look at a very old problem.” Trends Pharmacol Sci 1983; 4:450-4; and Chou T. C. and Talalay P. “Quantitative analysis of dose-effect relationships: the combined effects of multiple drugs or enzyme inhibitors.” Adv Enzyme Regul 1984; 22:27-55; both of which are incorporated herein by reference in their entirety). The definitions of synergism are those described by Chou (see Chou, T. C. (2006) Theoretical basis, experimental design, and computerized simulation of synergism and antagonism in drug combination studies. Pharmacol Rev. 58(3):621-81, which is incorporated herein by reference in its entirety).
In the synergism studies described herein, the antiviral compound shown in Table 6 was assessed in combination with a representative disclosed compound, Compound 1.

Data set [4] concerns PK9 cells. The data set is described as follows: TC50 assay in PK9 cells, 48 h. The conditions noted are these: Homo sapiens, PK9, 48 h, read-out: TC50 (μM) in PK9 cells at 48 hr. The protocol: as §1
(§2) PK9 and RPK9 cells were maintained at 37° C. in a humidified atmosphere at 5% CO2 in Roswell Park Memorial Institute (RPMI) media containing 10% FBS. […] The cells were then treated with each compound at concentrations ranging from […] to 0 μM in triplicate in RPMI media containing 2% FBS and 0.5% DMSO and without phenol red. […] The RPK9 cells were derived from the parental PK9 cell line, and are deficient for dCK activity due to the partial deletion of the dCK gene.

Data set [5] deals with RPK9 cells. The data set is described as follows: TC50 assay in gemcitabine resistant (dCK deficient) RPK9 cells, 48 h. To be noted: read-out: TC50 (μM) in RPK9 cells at 48 hr. The protocol:
as §1, §2

Data set [6] relates to MCF-7. The data set is described as follows: TC50 assay with human cancer cell lines, 96 h: MCF-7. It counts as cell-based.
Method: (§3) Huh7 cells were maintained at 37° C. in a humidified atmosphere at 5% CO2 in DMEM containing 10% FBS. […] The cells were then treated with each compound at concentrations ranging from 500 μM to 0 μM in triplicate in DMEM media containing 2% FBS and 0.5% DMSO and without phenol red. After 48 h of treatment at 37° C., the relative number of living cells in each well was determined by using the CellTiter 96 system (Promega) according to the manufacturer's instructions. The 3-(4,5-dimethylthiazol-2-yl)-5-(3-carboxymethoxyphenyl)-2-(4-sulfophenyl)-2H-tetrazolium (MTS) and phenazine methosulfate (PMS) reagents were added to each well of the 96-well plate and the plate was incubated at 37° C. for approximately 2 h. The absorbance at 490 nm and 650 nm in each well was then determined by using a Flexstation 3 microplate reader (Molecular Dynamics). The absorbance determined at 650 nm was then subtracted from the absorbance determined at 490 nm to correct for light scattering. The corrected absorbance values representing the relative number of live cells in each condition were then plotted as a function of compound concentration, and the data were then fit to the following sigmoidal Emax equation by using Kaleidagraph: y=(Emax*x^Slope)/(TC50^Slope+x^Slope) where y is the relative corrected absorbance value, Emax is the maximum relative inhibition, x is the compound concentration, TC50 is the concentration of the compound at which the total cell population is reduced by 50%, and Slope is the slope of the curve.
(§4) Huh7, HEPG2, HEK293, MCF-7 and BxPC3 cell lines were maintained at 37° C. in a humidified atmosphere at 5% CO2 in DMEM containing 10% FBS. […] The cells were then treated with each compound at concentrations ranging from 500 μM to 0 μM in triplicate in DMEM media containing 2% FBS and 0.5% DMSO and without phenol red.
Data set [7] concerns BxPC3. The data set is described as follows: TC50 assay with human cancer cell lines, 96 h: BxPC3. In kind it is cell-based.
Method: as §3, §4
The test system of data set [8] is HEK293. The data set is described as follows: TC50 assay with human cancer cell lines, 96 h: HEK293. In kind it is cell-based.
Method: as §3, §4
The subject of data set [9] is Huh7. The data set is described as follows: TC50 assay with human cancer cell lines, 96 h: Huh7. In kind it is cell-based.
Method: as §3, §4
The test system of data set [10] is HEPG2. The data set is described as follows: TC50 assay with human cancer cell lines, 96 h: HEPG2. It counts as cell-based. The conditions noted are these: HepG2, 96 h, read-out: TC50 HEPG2 (μM).
Method: as §3, §4
The mark [11] stands for this setting: Huh-7, Huh7 cells containing HCV luciferase replicon, 48 h exposure, read-out: IC50.

Where two headings read alike, the source gives them in different places. A value given as a limit tells only on which side of the number the result lay.

In data set [1], `CC(C)OC(=O)[C@H](C)NP(=O)(OC[C@H]1OC(n2ccc(NC(=O)C3Cc4ccccc4C3)nc2=O)C(F)(F)[C@@H]1O)Oc1ccccc1` (stereo in doubt) [Compound 13, (2S)-isopropyl 2-(((R)-(((2R,3R)-5-(4-(2,3-dihydro-1H-indene-2-carboxamido)-2-oxopyrimidin-1(2H)-yl)-4,4-difluoro-3-hydroxytetrahydrofuran-2-yl)methoxy)(phenoxy)phosphoryl)amino)-propanoate] had a CC50 at 48 h of 236 µM. Besides, the half-maximal inhibitory concentration (IC50) (usually the point on the concentration scale where inhibition reaches its midpoint) in [2] (Huh-7, 48 h) worked out at 0.345 µM. Also, in [2], the “Therapeutic Index (TC50/IC50)” value is 684.
As for `COC(=O)N[C@H](C(=O)N1CCC[C@H]1c1ncc(-c2ccc(-c3ccc(-c4cnc([C@@H]5CCCN5C(=O)[C@@H](NC(=O)OC)C(C)C)[nH]4)cc3)cc2)[nH]1)C(C)C` [BMS-790052, carbamic acid, N,N′-[[1,1′-biphenyl]-4,4′-diylbis[1H-imidazole-5,2-diyl-(2S)-2,1-pyrrolidinediyl[(1S)-1-(1-methylethyl)-2-oxo-2,1-ethanediyl]]]bis-, C,C′-dimethyl ester, reference compound], the “Combination Index” value in data set [3] (Compound 1 0.0 nM, BMS-790052 0.020 nM) is recorded as 1.000. Further, in data set [3] (compound alone, other compound 0 nM), the “concentration of the single agent on the IC50 isobologram (Combination Index 1.000)” value was determined as 0.020 nM.
Regarding `CCCC(CCC)C(=O)Nc1ccn([C@@H]2O[C@@H]3CO[P@@](=O)(OC(C)C)O[C@H]3C2(F)F)c(=O)n1` [Compound 2, N-(1-((2S,4aR,6R,7aR)-7,7-difluoro-2-isopropoxy-2-oxidotetrahydro-4H-furo[3,2-d][1,3,2]-dioxaphosphinin-6-yl)-2-oxo-1,2-dihydropyrimidin-4-yl)-2-propylpentanamide], the CC50 at 48 h in data set [1] (Huh7 cells) was found to be 175 ± 23 µM. Moreover, the figures for the CC50 in data set [4] and in [5] were 716 ± 104 µM and 537 ± 55 µM, respectively. Further, the half-maximal inhibitory concentration (IC50) in data set [2] (setting [11]) amounted to 7.48 µM. The “Therapeutic Index (TC50/IC50)” value in data set [2] came to 23.4.
In turn, `O=C(Nc1ccn(C2O[C@H](CO)[C@@H](O)C2(F)F)c(=O)n1)c1ccc2c(c1)CCCC2` (stereo partly drawn) [Compound 5, N-(1-((4R,5R)-3,3-difluoro-4-hydroxy-5-(hydroxymethyl)tetrahydrofuran-2-yl)-2-oxo-1,2-dihydropyrimidin-4-yl)-5,6,7,8-tetrahydronaphthalene-2-carboxamide] showed a CC50 at 48 h in data set [1] (Huh7 cells) of 132 µM. In data set [2] (setting [11]), the IC50 was determined as 0.086 µM. The “Therapeutic Index (TC50/IC50)” value in data set [2] was 1,535.
In the same order, the values of `O=C(Nc1ccn(C2O[C@H](CO)[C@@H](O)C2(F)F)c(=O)n1)c1ccc2cc(Br)ccc2c1` (stereo partly drawn) [Compound 6, 6-bromo-N-(1-((4R,5R)-3,3-difluoro-4-hydroxy-5-(hydroxymethyl)tetrahydrofuran-2-yl)-2-oxo-1,2-dihydropyrimidin-4-yl)-2-naphthamide] are 74 µM, 0.185 µM and 400.
`O=C(Nc1ccn(C2O[C@H](CO)[C@@H](O)C2(F)F)c(=O)n1)c1ccc2ccccc2c1` (stereo partly drawn) [Compound 7, N-(1-((4R,5R)-3,3-difluoro-4-hydroxy-5-(hydroxymethyl)tetrahydrofuran-2-yl)-2-oxo-1,2-dihydropyrimidin-4-yl)-2-naphthamide]: the CC50 at 48 h in [1] (Huh7 cells) is 125 µM. Further, the IC50 in data set [2] (setting [11]) was determined as 0.126 µM. In addition, the “Therapeutic Index (TC50/IC50)” value in data set [2] is reported as 992.
In data set [1] (Huh7 cells), `O=C(Nc1ccn(C2O[C@H](CO)[C@@H](O)C2(F)F)c(=O)n1)c1ccc2c(c1)C(=O)c1ccccc1C2=O` (stereo partly drawn) [Compound 8, N-(1-((4R,5R)-3,3-difluoro-4-hydroxy-5-(hydroxymethyl)tetrahydrofuran-2-yl)-2-oxo-1,2-dihydropyrimidin-4-yl)-9,10-dioxo-9,10-dihydroanthracene-2-carboxamide] had a CC50 at 48 h of 249 µM. In [2] (setting [11]), the IC50 turned out to be 0.0128 µM. In addition, the “Therapeutic Index (TC50/IC50)” value in data set [2] is on record as 19,450.
As to `O=C(Nc1ccn(C2O[C@H](CO)[C@@H](O)C2(F)F)c(=O)n1)c1cccc2c1CCCC2` (stereo partly drawn) [Compound 9, N-(1-((4R,5R)-3,3-difluoro-4-hydroxy-5-(hydroxymethyl)tetrahydrofuran-2-yl)-2-oxo-1,2-dihydropyrimidin-4-yl)-5,6,7,8-tetrahydronaphthalene-1-carboxamide], in data set [1] (Huh7 cells), the CC50 at 48 h was found to be 92 µM. For the same molecule, the concentration for half-maximal inhibition (IC50) in data set [2] (setting [11]) was determined as 0.161 µM. Further, in data set [2], the “Therapeutic Index (TC50/IC50)” value was 571.
For the molecule `COc1ccc2cc(C(=O)Nc3ccn(C4O[C@H](CO)[C@@H](O)C4(F)F)c(=O)n3)ccc2c1` (stereo partly drawn) [Compound 10, N-(1-((4R,5R)-3,3-difluoro-4-hydroxy-5-(hydroxymethyl)tetrahydrofuran-2-yl)-2-oxo-1,2-dihydropyrimidin-4-yl)-6-methoxy-2-naphthamide], the CC50 at 48 h in data set [1] (Huh7 cells) is 168 µM. Besides, in data set [2] (setting [11]), the half-maximal inhibitory concentration (IC50) was determined as 0.0935 µM. Besides, in data set [2], the “Therapeutic Index (TC50/IC50)” value is reported as 1,796.
On the same counts, the results for `O=C(Nc1ccn(C2O[C@H](CO)[C@@H](O)C2(F)F)c(=O)n1)C1Cc2ccccc2C1` (stereo partly drawn) [Compound 11, N-(1-((4R,5R)-3,3-difluoro-4-hydroxy-5-(hydroxymethyl)tetrahydrofuran-2-yl)-2-oxo-1,2-dihydropyrimidin-4-yl)-2,3-dihydro-1H-indene-2-carboxamide] are over 500 µM, 0.01 µM and >50,000.
On the same counts, the results for `O=C(Nc1ccn(C2O[C@H](CO)[C@@H](O)C2(F)F)c(=O)n1)c1ccc2c(c1)CCC2` (stereo partly drawn) [Compound 12, N-(1-((4R,5R)-3,3-difluoro-4-hydroxy-5-(hydroxymethyl)tetrahydrofuran-2-yl)-2-oxo-1,2-dihydropyrimidin-4-yl)-2,3-dihydro-1H-indene-5-carboxamide] are 378 µM, 0.0586 µM and 6,451.
`O=C(Nc1ccn(C2O[C@H](CO)[C@@H](O)C2(F)F)c(=O)n1)c1ccc2c(c1)OCO2` (stereo partly shown) [Non-phosphorylated analog of Compound 4] gave a CC50 at 48 h in data set [1] (Huh7 cells) of 473 ± 74 µM. The CC50 is 1.19 µM in data set [6] (MCF7, 96 h of treatment, read-out: TC50 MCF-7); 0.72 µM in data set [7] (BXPC-3, 96 h of treatment, read-out: TC50 BxPC3); 4.09 µM in data set [8] (HEK293, 96 h of treatment, read-out: TC50 HEK293); 7.04 µM in data set [9] (Huh-7, 96 h of treatment, read-out: TC50 Huh7); over 500 µM in [5]. In addition, in data set [2] (setting [11]), the IC50 was 0.0598 ± 0.0084 µM. In [2], the “Therapeutic Index (TC50/IC50)” value was 7910.
As to `CC(C)OC(=O)[C@H](C)N[P@](=O)(OC[C@H]1O[C@@H](n2ccc(N)nc2=O)C(F)(F)C1O)Oc1ccccc1` (stereo partly shown) [Phosphorylated analog of Gemcitabine], the CC50 was found to be 0.115 µM in data set [6] (MCF7, 96 h, read-out: TC50 MCF-7 (μM)); 0.76 µM in data set [7] (BXPC-3, 96 h, read-out: TC50 BxPC3 (μM)); 0.38 µM in [8] (HEK293, 96 h, read-out: TC50 HEK293 (μM)); 4.15 µM in [9] (Huh-7, 96 h, read-out: TC50 Huh7 (μM)); 11.2 µM in data set [4]; 21 µM in [5]. For the same molecule, the CC50 in data set [10] was 0.89 µM.
